# Experimental data published in patent US5959130A, “Castor based benzoate esters” (Finetex, Inc., priority 1997, dated 1999).
# Legend:
# [1] = Gardnor scale
# [2] = Hagman readings (particle size), titanium dioxide dispersion, Table VI A; format: physicochemical; details: for Hagman reading (particle size): TiO2 50%
# Method: (§1) The novel benzoate esters of the invention were tested for pigment and dye dispersing efficacy. Color pastes were prepared by dispersing dry pigment into the oil phase while hand stirring and then passing each mixture through a three roll mill six times, collecting a 16 oz. sample after each pass. The samples collected were subjected to particle size measurements.
# [3] = physical properties of benzoate esters compared to precursors, Table II; format: physicochemical
# Description: Absence of odor is an important factor in consumer acceptance of cosmetic and toiletry products.
# [4] = Hagman readings (particle size), Red No. 21 dispersion, Table VI A; format: physicochemical; details: Red No. 21 35%
# Method: as §1
# [5] = viscosity readings of titanium dioxide dispersions, Table VI B; format: physicochemical; details: for Viscosity reading of dispersion: Brookfield LVT-D @ 12 RPM, TiO2 50%
# [6] = sunscreen solubility: Benzophenone-3, Table IV A; format: physicochemical
# Description: (§2) These two sunscreens are difficult to dissolve and keep in solution for use in sunscreen formulations for optimal SPF (sun-protection factors). Higher solvency for a sunscreen ingredient is desirable as it allows higher concentrations of the sunscreen active ingredient in a formulation. This advantageously raises the SPF ratings for the formulation. The liquid organic sunscreens that are commonly used are octyl-methoxy cinnamate (OMC) and octyl salicylate (OS).
# (§3) Solubility/Solvency Tables IVA and IVB show the solubility and concentrations of the sunscreen ingredient in the novel esters of the invention compared to their precursor raw materials (non-benzoate esters).
# [7] = Hagman readings (particle size), Red No. 6 Barium Lake dispersion, Table VI A; format: physicochemical; details: Red No. 6 Barium Lake 35%
# Method: as §1
# [8] = viscosity readings of Red No. 21 dispersions, Table VI B; format: physicochemical; details: for Viscosity reading of dispersion: Brookfield LVT-D @ 12 RPM, Red No. 21 35%
# [9] = sunscreen solubility: PARSOL 1789, Table IV B; format: physicochemical
# Description: as §2, §3
# [10] = organoleptic evaluation of tactile characteristics on the forearm, Table VII; format: in vivo, individuals; details: rating, 1 = Worst 5 = Best
# Method: The tactile characteristics of the novel benzoate esters of the invention were determined by applying the appropriate material, neat or as a dilution with another emollient ester, lanolin or […]. The properties were evaluated organoleptically after application to the interior surface of the forearm.
# [11] = 23° C., 10 gms sunscreen in 100 gms mixture
# [12] = 23° C., 15 gms sunscreen in 100 gms mixture
# [13] = 30° C., 10 gms sunscreen in 100 gms mixture
# [14] = 30° C., 15 gms sunscreen in 100 gms mixture
compound,measurement,setting,value
"CCCCCCCCCCCCCCCCOC(=O)CCCCCCCC=CCC(CCCCCC)OC(=O)c1ccccc1 (centres unmarked) [Example 10, Benzoate Ester of Cetyl Ricinoleate]",Color,[1],4
"CCCCCCCCCCCCCCCCOC(=O)CCCCCCCC=CCC(CCCCCC)OC(=O)c1ccccc1 (centres unmarked) [Example 9, Benzoate Ester of Cetyl Ricinoleate]",Color,[1],4
"CCCCCCC(CCCCCCCCCCC(=O)OCC(COC(=O)CCCCCCCCCCC(CCCCCC)OC(=O)c1ccccc1)OC(=O)CCCCCCCCCCC(CCCCCC)OC(=O)c1ccccc1)OC(=O)c1ccccc1 (centres unmarked) [Example 7, Castor Wax MP-80 Benzoate]",Color,[1],3
"CCCCCCCCCCCCCCCCOC(=O)CCCCCCCC=CCC(CCCCCC)OC(=O)c1ccccc1 (centres unmarked) [BCR, benzoic acid ester of cetyl-ricinoleate]",Hagman reading (particle size),[2]; pass 1,≤ 30 μm
same,Hagman reading (particle size),[2]; pass 2,≤ 30 μm
same,Hagman reading (particle size),[2]; pass 3,≤ 21 μm
same,Hagman reading (particle size),[2]; pass 4,≤ 18 μm
same,Hagman reading (particle size),[2]; pass 5,≤ 10 μm
same,Hagman reading (particle size),[2]; pass 6,≤ 10 μm
same,particle size reduction vs precursor CR (in words),[2]; third pass and onwards,better reduction of particle size
same,S.G. (specific gravity),[3]; 25° C.,0.915
same,VISCOSITY,"[3]; Brookfield Viscometer, Spindle # 1, 10 rpm",80 cps
same,Hagman reading (particle size),[4]; pass 1,≤ 34 μm
same,Hagman reading (particle size),[4]; pass 2,≤ 26 μm
same,Hagman reading (particle size),[4]; pass 3,≤ 20 μm
same,Hagman reading (particle size),[4]; pass 4,≤ 12 μm
same,Hagman reading (particle size),[4]; pass 5,≤ 8 μm
same,Hagman reading (particle size),[4]; pass 6,≤ 6 μm
same,viscosity of TiO2 dispersions (in words),[5],much lower viscosity
same,Viscosity reading of dispersion,[5]; pass 1,1794 cps
same,Viscosity reading of dispersion,[5]; pass 2,1872 cps
same,Viscosity reading of dispersion,[5]; pass 3,2028 cps
same,Viscosity reading of dispersion,[5]; pass 4,2028 cps
same,Viscosity reading of dispersion,[5]; pass 5,2028 cps
same,Viscosity reading of dispersion,[5]; pass 6,1950 cps
same,Sunscreen solubility (Benzophenone-3),[6]; [11],+
same,Sunscreen solubility (Benzophenone-3),[6]; [12],+
same,Sunscreen solubility (Benzophenone-3),[6]; [13],+
same,Sunscreen solubility (Benzophenone-3),[6]; [14],+
same,Hagman reading (particle size),[7]; pass 1,≤ 53 μm
same,Hagman reading (particle size),[7]; pass 2,≤ 50 μm
same,Hagman reading (particle size),[7]; pass 3,≤ 46 μm
same,Hagman reading (particle size),[7]; pass 4,≤ 33 μm
same,Hagman reading (particle size),[7]; pass 5,≤ 30 μm
same,Hagman reading (particle size),[7]; pass 6,≤ 27 μm
same,viscosity of Red No. 21 dispersion (in words),[8],excellent low viscosity dispersion
same,Viscosity reading of dispersion,[8]; pass 1,4602 cps
same,Viscosity reading of dispersion,[8]; pass 2,4368 cps
same,Viscosity reading of dispersion,[8]; pass 3,4212 cps
same,Viscosity reading of dispersion,[8]; pass 4,4134 cps
same,Viscosity reading of dispersion,[8]; pass 5,4290 cps
same,Viscosity reading of dispersion,[8]; pass 6,4368 cps
same,Sunscreen solubility (Parsol 1789),[9]; [11],+
same,Sunscreen solubility (Parsol 1789),[9]; [12],+
same,Sunscreen solubility (Parsol 1789),[9]; [13],+
same,Sunscreen solubility (Parsol 1789),[9]; [14],+
same,GREASINESS/OILINESS,[10],4
same,OVERALL TACTILITY,[10],4
same,SPREADABILITY,[10],3
same,TACK,[10],3
"CCCCCCCCCCCCCCCCOC(=O)CCCCCCCC=CCC(CCCCCC)OC(=O)c1ccccc1 (centres unmarked) [Example 11, Benzoate Ester of Cetyl Ricinoleate]",Color,[1],4
"CCCCCCC(CCCCCCCCCCC(=O)OCC(COC(=O)CCCCCCCCCCC(CCCCCC)OC(=O)c1ccccc1)OC(=O)CCCCCCCCCCC(CCCCCC)OC(=O)c1ccccc1)OC(=O)c1ccccc1 (centres unmarked) [Example 6, Castor Wax MP-80 Benzoate]",Color,[1],3
"CCCCCCCCCCCCCCCCOC(=O)CCCCCCCC=CCC(CCCCCC)OC(=O)c1ccccc1 (centres unmarked) [Example 8, Benzoate Ester of Cetyl Ricinoleate]",Color,[1],4
